What was measured:
[1] = target: T1, PPARα (Homo sapiens, UniProt Q07869); experiment: PPARα-activating effect (EC50); format: biochemical
T1 sequence (Q07869 1-468): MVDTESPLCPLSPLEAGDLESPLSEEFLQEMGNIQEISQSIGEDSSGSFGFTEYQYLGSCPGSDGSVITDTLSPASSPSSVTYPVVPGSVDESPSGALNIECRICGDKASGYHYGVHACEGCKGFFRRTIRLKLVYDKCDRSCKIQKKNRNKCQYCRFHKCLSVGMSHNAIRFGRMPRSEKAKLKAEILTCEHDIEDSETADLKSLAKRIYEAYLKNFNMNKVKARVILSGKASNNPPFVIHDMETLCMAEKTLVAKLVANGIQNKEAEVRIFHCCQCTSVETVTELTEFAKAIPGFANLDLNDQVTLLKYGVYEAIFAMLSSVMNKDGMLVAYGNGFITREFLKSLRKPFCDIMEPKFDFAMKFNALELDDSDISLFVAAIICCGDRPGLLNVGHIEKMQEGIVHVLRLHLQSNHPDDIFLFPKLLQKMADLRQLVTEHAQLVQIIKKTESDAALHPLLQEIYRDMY

[2] = system: patients with dyslipidemia; experiment: Previous clinical trials of pemafibrate (healthy adults, patients with dyslipidemia); format: in vivo, human
Procedure: In previous clinical trials, pemafibrate has been administered at doses ranging from 0.1 mg to 1.6 mg per day in healthy adults. Doses up to 0.4 mg per day have been administered in patients with dyslipidemia. […] Increases in LDL-C, both by beta quantification and calculation with the Friedewald equation, were also observed. Based on analysis of efficacy variables, pemafibrate appeared to have a lowering effect on Apo C3 that led to the conversion of VLDL particles to LDL particles, increasing the fraction of larger LDL particles, and reducing TG levels. Similarly, the reduction of Apo C3 led to increased removal of remnant-like particles and lowering of Apo B48. […] The observed increases in Apo A1 and HDL-C resulted from both increased production of Apo A1 in the liver and increased turnover of TG-rich lipoproteins, both of which were associated with a decreased CHD risk.
Because the urinary excretion of pemafibrate is low, as shown by nonclinical and clinical studies, it is expected that pemafibrate can be used safely even in patients with renal impairment. In addition, because the drug has minimal inhibitory effects on major drug metabolizing enzymes in the liver, it is unlikely to cause drug-drug interactions; however, drugs which are strong organic anion-transporting polypeptide (OATP) inhibitors (e.g., cyclosporine and rifampin) do interact with pemafibrate.

specificity for the PPARα receptor ([1]; versus fenofibrate): more specific
times more active than fenofibric acid in terms of the EC50 of the PPARα-activating effect ([1]; versus fenofibric acid): approximately 2500 times
Compound: CC[C@@H](Oc1cccc(CN(CCCOc2ccc(OC)cc2)c2nc3ccccc3o2)c1)C(=O)O [Pemafibrate, (2R)-2-[3-({1,3-benzoxazol-2-yl[3-(4-methoxyphenoxy)propyl]amino}methyl)phenoxy]butanoic acid]
TG change ([2]; Japanese and European patients): dose-dependent decreases
safety profile ([2]; total daily doses 0.1 mg to 0.4 mg, daily or divided twice daily): acceptable safety profile

Source: patent US11446282B2, “Methods of treating mixed dyslipidemia and hypertriglycertdemia” (Kowa Company, Ltd., priority 2017, dated 2022)
